Where two headings read alike, the source gives them in different places.
Tests used:
[1] = molecular target: T1, His tagged PTPN2 (TC45) protein (Homo sapiens, UniProt P17706); experiment: Mobility shift assay used to determine potency of PTPN2 inhibitors; assay type: biochemical; conditions: enzyme 0.5 nM, substrate 2 μM; read-out: PTPN2 MSA IC50
T1 construct: made in house
T1 sequence (P17706 with tags, fused parts or gaps isoform P17706-2): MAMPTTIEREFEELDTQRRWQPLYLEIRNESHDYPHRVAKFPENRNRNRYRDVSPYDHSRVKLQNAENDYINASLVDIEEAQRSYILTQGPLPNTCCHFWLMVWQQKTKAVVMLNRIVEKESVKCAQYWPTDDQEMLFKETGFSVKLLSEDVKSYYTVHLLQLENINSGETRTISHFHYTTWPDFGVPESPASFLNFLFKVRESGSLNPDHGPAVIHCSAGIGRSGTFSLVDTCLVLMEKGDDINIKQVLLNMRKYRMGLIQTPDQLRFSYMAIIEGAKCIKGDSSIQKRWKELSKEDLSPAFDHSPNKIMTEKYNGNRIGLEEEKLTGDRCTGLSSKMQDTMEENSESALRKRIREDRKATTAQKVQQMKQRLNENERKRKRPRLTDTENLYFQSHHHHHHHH
Procedure, shortened: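 Enzyme (0.5 nM) preincubated with compound (12-point, 1:3 dilution) 10 min at room temperature in 50 mM HEPES pH 7.5, 1 mM EGTA, 10 mM EDTA, 0.01% Tween 20, 2 mM DTT; OG488-labelled phospho-insulin-receptor peptide substrate (2 μM) added for 10 min, then quenched. Microfluidic mobility shift (ex 488/em 530 nm) gave % conversion; IC50 from % inhibition.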

[2] = system: B16F10 mouse melanoma cells; experiment: B16F10 IFNγ-induced cellular growth inhibition assay; assay type: cell-based; conditions: B16-F10, with 0.5 ng/mL IFNγ
Procedure, shortened: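 B16F10 cells grown in DMEM+10% FBS, with or without 0.5 ng/mL final mouse IFNγ, and dosed in triplicate at 100 μM to 0.001 μM final (0.1% DMSO). Confluence imaged every 6 h for 5 days; percent growth inhibition versus DMSO/with-IFNγ control taken once DMSO/no-IFNγ wells exceeded 95% confluence, giving IC50.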

[3] = system: IFNγ-induced STAT1 phosphorylation in CD14+ monocytes; experiment: Human whole blood pSTAT1 proximal pharmacodynamic (PD) assay; assay type: cell-based; conditions: Monocyte, 3 hours compound, IFNγ 20 minutes
Experimental: Example 230: Human Whole Blood pSTAT1 Proximal Pharmacodynamic (PD) Assay Human blood samples were acquired through internal AbbVie Inc's blood donation program in accordance with AbbVie's Occupational Safety and Health Administration protocols. Blood was collected by venipuncture into sodium heparin coated vacutainer tubes and kept at room temperature for no longer than 1 hour prior to the experiment initiation. Human blood samples (90 μL) were added to the individual wells of 96-well plates containing 10 μL of 10× working stock solutions of increasing concentrations of compounds to achieve final concentrations ranging from 0.025 μM to 500 μM and incubated for 3 hours at 37° C. To induce STAT1 phosphorylation the samples were then treated with recombinant human IFNγ (R&D Systems, Catalog^#285-IF, Minneapolis, Minn.; 100 nM final concentration) for 20 minutes, and 3 μL/well BV421 labeled anti-CD14 surface antibody (Biolegend, San Diego, Calif., Catalog^#301830) was added for 45 minutes before fixation and red blood cell lysis was performed with BD Phosflow Lyse/Fix buffer (BD Biosciences, San Jose, Calif., Catalog^#558049). Cells were subsequently permeabilized on ice by the addition of BD Perm III buffer (BD Biosciences, San Jose, Calif., Catalog^#558050) and stored at -80° C. until use. Before staining, the cells were washed with PBS containing 0.1% BSA. Optim/zed concentrations of BUV395 labeled anti-CD45 (BD Biosciences, San Jose, Calif., Catalog^#563792) and PE labeled anti-phospho-STAT1 ([…]; Invitrogen, Carlsbad, Calif., Catalog^#12-9008-42) antibodies were added to the cell suspensions and incubated for 2 hours. The cells were washed with PBS containing 0.1% BSA and analyzed on a BD LSRFortessaTM X20 flow cytometer (BD Biosciences, San Jose, Calif.) using BD FACSDivaTM software. The data was analyzed using FlowJo V10 analysis software (Flow Jo LLC, Ashland, Oreg.). The amount of STAT phosphorylation was measured by the mean fluorescence intensity (MFI) of pSTAT1 in CD14+monocytes. Compound dose-response curves were determined using a four-parameter logistic-nonlinear regression model from which half maximal effective concentrations (EC50) were calculated. All statistical analyses utilized GraphPad software (San Diego, Calif.).

[4] = molecular target: T2, His tagged full-length PTPN1 protein (Homo sapiens, UniProt P18031); experiment: Mobility shift assay (MSA) used to determine potency of PTPN1 inhibitors; assay type: biochemical; conditions: enzyme 0.5 nM, substrate 2 μM
T2 construct: made in house
T2 sequence (P18031 with tags, fused parts or gaps): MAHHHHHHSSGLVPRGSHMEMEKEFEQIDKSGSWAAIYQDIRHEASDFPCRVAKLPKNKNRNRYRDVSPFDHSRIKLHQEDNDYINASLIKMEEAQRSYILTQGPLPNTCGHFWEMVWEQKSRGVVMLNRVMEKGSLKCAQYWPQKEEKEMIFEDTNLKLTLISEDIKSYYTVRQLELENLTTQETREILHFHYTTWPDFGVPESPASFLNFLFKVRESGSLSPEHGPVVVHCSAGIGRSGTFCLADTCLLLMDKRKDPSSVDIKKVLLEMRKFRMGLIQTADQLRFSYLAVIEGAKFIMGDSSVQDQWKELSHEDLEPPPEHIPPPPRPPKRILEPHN
Procedure, shortened: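 Full-length His-tagged human PTPN1 (0.5 nM) was preincubated 10 min at room temperature with compound (12-point, 1:3 dilution) in HEPES pH 7.5 buffer with EGTA, EDTA, Tween 20 and DTT. A 2 μM fluorescent phospho-insulin receptor peptide was then added for 10 min before quench. Mobility-shift % conversion gave % inhibition and IC50.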

[5] = system: Pan T cells isolated from C57BL6 splenocytes; experiment: T cell function assays (IFNγ and TNFα in supernatants); assay type: cell-based, mouse; conditions: 0.3 μM compound, 3 days; for IFNγ [pg/mL] anti-CD3/CD28 / TNFα [pg/mL] anti-CD3/CD28: anti-CD3/CD28 stimulation
Experimental: Example 231: T Cell Function Assays Pan T cells were isolated from C57BL6 splenocytes using a MACS Pan T cell isolation kit II (Miltenyi Biotec, Auburn, Calif.) according to the manufacturer's instructions. Isolated T cells (200,000 cells/well in a 96 well flat-bottom plate) were cultured in RPMI 1640 supplemented with 10% FBS, […] 2-mercaptoethanol, 100 U/mL penicillin, and 100 μg/mL streptomycin, and incubated with 0.3 μM compound or DMSO in duplicates. After 1 hour, mouse T cell activator CD3/CD28 Dynabeads (ThermoFisher Scientific, Waltham, Mass.) were added at a 1:5 beads to cells ratio to stimulate the T cells for 3 days. T cells with or without compound were incubated in the absence of T cell activator beads to evaluate if compounds nonspecifically stimulate the T cells. After 3 days of stimulation, supernatants were collected and IFNγ and TNFα in supernatants were assessed using an MSD V-plex assay (Meso Scale Discovery, Rockville, Md.).

[6] = read-out: B16F10 Growth Inhibition IC50

Row | SMILES | IC50 [1] [nM] | IC50 ([2]; read-out: B16F10 GI IC50) [nM] | IC50 [2, 6] [nM] | EC50 [3] [nM] | IC50 [4] [nM] | IFNγ [pg/mL] anti-CD3/CD28 [5] [pg/mL] | TNFα [pg/mL] anti-CD3/CD28 [5] [pg/mL] | IFNγ [pg/mL] no stimulation [5] [pg/mL] | TNFα [pg/mL] no stimulation [5] [pg/mL]
1 | O=C1CN(c2c(O)cc3c(c2F)C[C@H](NCCCC(F)(F)F)CC3)S(=O)(=O)N1 (single isomer, unassigned) [Compound 146] | 1 to 10 | < 1000 | < 50 | 400 | – | – | – | – | –
2 | O=C1CN(c2c(O)cc3c(c2F)C[C@H](NCCC2(C(F)(F)F)CC2)CC3)S(=O)(=O)N1 (single isomer, unassigned) [Compound 148] | < 1 | < 1000 | – | – | < 1 | 168.4 | 123.4 | 1.0 | 0.8
3 | CC(C)CCNC[C@@H]1Cc2cc(O)c(N3CC(=O)NS3(=O)=O)c(F)c2C1 (single isomer, unassigned) [Compound 291] | 1 to 10 | < 1000 | – | – | 1 to 10 | 83.3 | 91.2 | 0.7 | 1.1
4 | C[C@@H](O)CCN[C@@H]1CCc2cc(O)c(N3CC(=O)NS3(=O)=O)c(F)c2C1 (single isomer, unassigned) [Compound 307] | 1 to 10 | < 1000 | – | – | 1 to 10 | 66.7 | 89.5 | 1.2 | 1.1
5 | O=C1CN(c2c(O)cc3c(c2F)C[C@H](NCCC2CCCC2)CC3)S(=O)(=O)N1 [Compound 200, 5-{(7R)-7-[(2-cyclopentylethyl)amino]-1-fluoro-3-hydroxy-5,6,7,8-tetrahydronaphthalen-2-yl}-1λ^6,2,5-thiadiazolidine-1,1,3-trione] | – | < 1000 | < 50 | 2400 | – | – | – | – | –
6 | CC(C)CCCC1(N)CCc2cc(O)c(N3CC(=O)NS3(=O)=O)c(F)c2C1 (stereo not shown) [Compound 254, 5-[7-amino-1-fluoro-3-hydroxy-7-(4-methylpentyl)-5,6,7,8-tetrahydronaphthalen-2-yl]-1λ^6,2,5-thiadiazolidine-1,1,3-trione] | 10 to 100 | 1000 to 10000 | – | – | 10 to 100 | 97.0 | 91.2 | 0.7 | 1.1
7 | CC(C)(O)CCOc1ccc2cc(O)c(N3CC(=O)NS3(=O)=O)c(F)c2c1 [Compound Y] | – | – | 5800 | 38000 | – | 67.2 | 32.5 | 1.2 | 1.0
8 | CCC1CCc2cc(O)c(N3CC(=O)NS3(=O)=O)c(F)c2C1 (stereo not shown) [Compound Z] | – | – | 17800 | > 500000 | – | – | – | – | –

Reference: US10851073B2, “Protein tyrosine phosphatase inhibitors and methods of use thereof” (Calico Life Sciences LLC, priority 2019, dated 2020)
